Source: ChEMBL document CHEMBL4152352, “Discovery of a non-toxic [1,2,4]triazolo[1,5-a]pyrimidin-7-one (WS-10) that modulates ABCB1-mediated multidrug resistance (MDR)” (Bioorg Med Chem, 2018)
Activity calls are given as the source filed them. The rule behind the calls is not given here.

What was measured:
HEK-293T [1] = experiment: Potentiation of doxorubicin-induced cytotoxicity against HEK293T cells assessed as change in doxorubicin IC50 at 10 uM after 72 hrs by MTT assay relative to control; assay type: cell-based; conditions: human
[2] = Ratio of paclitaxel IC50 for cytotoxicity against HEK293T cells in absence of test compound to paclitaxel IC50 for HEK293T cells expressing ABCB1 in presence of 20 uM test compound; assay type: functional, Homo sapiens
HEK-293T [3] = experiment: Potentiation of paclitaxel-induced cytotoxicity against HEK293T cells assessed as change in paclitaxel IC50 at 20 uM after 72 hrs by MTT assay relative to control; assay type: cell-based; conditions: human
[4] = molecular target: T1, ATP-dependent translocase ABCB1 (Homo sapiens, UniProt P08183); experiment: Inhibition of ABCB1 in human SW620/Ad300 cells assessed as increase in intracellular paclitaxel accumulation at 10 to 20 uM preincubated for 72 hrs followed by paclitaxel addition and measured after 3 hrs by UPLC method; assay type: cell-based
T1 sequence (P08183 whole entry): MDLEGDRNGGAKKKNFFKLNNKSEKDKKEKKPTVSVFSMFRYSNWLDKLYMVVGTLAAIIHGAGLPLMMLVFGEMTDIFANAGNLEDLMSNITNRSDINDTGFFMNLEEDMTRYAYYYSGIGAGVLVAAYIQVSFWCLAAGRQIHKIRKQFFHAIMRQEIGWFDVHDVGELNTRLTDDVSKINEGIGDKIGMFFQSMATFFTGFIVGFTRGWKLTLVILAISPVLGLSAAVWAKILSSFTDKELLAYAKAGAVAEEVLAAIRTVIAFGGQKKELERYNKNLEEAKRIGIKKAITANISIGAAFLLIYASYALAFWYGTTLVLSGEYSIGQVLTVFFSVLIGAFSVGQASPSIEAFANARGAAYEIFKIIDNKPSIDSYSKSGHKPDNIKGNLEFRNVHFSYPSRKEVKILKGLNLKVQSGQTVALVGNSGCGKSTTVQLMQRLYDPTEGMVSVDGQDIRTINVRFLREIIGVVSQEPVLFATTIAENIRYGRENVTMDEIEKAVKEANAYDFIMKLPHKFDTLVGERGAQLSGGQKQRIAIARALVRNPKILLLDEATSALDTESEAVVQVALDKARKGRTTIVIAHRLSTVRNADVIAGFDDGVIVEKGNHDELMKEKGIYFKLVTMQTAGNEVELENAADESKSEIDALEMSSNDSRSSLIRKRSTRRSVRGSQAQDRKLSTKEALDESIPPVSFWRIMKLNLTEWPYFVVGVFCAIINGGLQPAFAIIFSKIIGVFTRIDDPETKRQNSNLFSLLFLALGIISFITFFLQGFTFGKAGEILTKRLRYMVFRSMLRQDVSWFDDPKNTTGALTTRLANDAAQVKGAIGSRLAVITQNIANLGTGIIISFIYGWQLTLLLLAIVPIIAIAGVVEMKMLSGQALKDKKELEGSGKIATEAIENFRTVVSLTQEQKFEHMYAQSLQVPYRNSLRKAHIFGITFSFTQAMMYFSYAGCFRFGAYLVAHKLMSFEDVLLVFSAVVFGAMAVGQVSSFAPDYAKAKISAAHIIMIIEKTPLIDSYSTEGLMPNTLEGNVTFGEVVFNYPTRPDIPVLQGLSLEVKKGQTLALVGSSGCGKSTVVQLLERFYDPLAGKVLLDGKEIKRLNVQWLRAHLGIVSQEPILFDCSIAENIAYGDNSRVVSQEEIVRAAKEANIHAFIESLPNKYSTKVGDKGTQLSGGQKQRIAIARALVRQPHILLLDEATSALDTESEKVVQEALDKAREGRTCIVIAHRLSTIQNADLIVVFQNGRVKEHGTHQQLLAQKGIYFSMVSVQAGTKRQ

SW-620 [5] = experiment: Potentiation of cisplatin-induced cytotoxicity against human SW620 cells assessed as change in cisplatin IC50 at 10 uM after 72 hrs by MTT assay relative to control; assay type: cell-based; conditions: sw-620, 72 h
[6] = molecular target: T1, ATP-dependent translocase ABCB1; experiment: Stabilization of ABCB1 in human SW620/Ad300 cells at 10 uM after 30 mins by cellular thermal shift assay; assay type: cell-based; conditions: 0.5 h
SW-620 [7] = experiment: Potentiation of doxorubicin-induced cytotoxicity against human SW620 cells assessed as change in doxorubicin IC50 at 10 uM after 72 hrs by MTT assay relative to control; assay type: cell-based; conditions: sw-620, 72 h
[8] = Ratio of doxorubicin IC50 for cytotoxicity against HEK293T cells in absence of test compound to doxorubicin IC50 for HEK293T cells expressing ABCB1 in presence of 20 uM test compound; assay type: functional, Homo sapiens
[9] = Ratio of paclitaxel IC50 for cytotoxicity against HEK293T cells in absence of test compound to paclitaxel IC50 for HEK293T cells expressing ABCB1 in presence of 4 uM test compound; assay type: functional, Homo sapiens
[10] = Ratio of doxorubicin IC50 for cytotoxicity against human SW620 cells in absence of test compound to doxorubicin IC50 for human SW620/Ad300 cells in presence to 10 uM test compound; assay type: functional
SW-620 [11] = experiment: Potentiation of paclitaxel-induced cytotoxicity against human SW620 cells assessed as change in paclitaxel IC50 at 4 uM after 72 hrs by MTT assay relative to control; assay type: cell-based; conditions: sw-620, 72 h
SW-620 [12] = experiment: Potentiation of cisplatin-induced cytotoxicity against human SW620 cells assessed as change in cisplatin IC50 at 4 uM after 72 hrs by MTT assay relative to control; assay type: cell-based; conditions: sw-620, 72 h
[13] = Ratio of cisplatin IC50 for cytotoxicity against HEK293T cells in absence of test compound to cisplatin IC50 for HEK293T cells expressing ABCB1 in presence of 20 uM test compound; assay type: functional, Homo sapiens
[14] = Ratio of doxorubicin IC50 for cytotoxicity against HEK293T cells in absence of test compound to doxorubicin IC50 for HEK293T cells expressing ABCB1 in presence of 10 uM test compound; assay type: functional, Homo sapiens
TE-1 = experiment: Cytotoxicity against human TE1 cells assessed as decrease in cell survival at 10 to 20 uM after 72 hrs by MTT assay; assay type: cell-based; conditions: te-1, 72 h
[15] = Ratio of cisplatin IC50 for cytotoxicity against human SW620 cells in absence of test compound to cisplatin IC50 for human SW620/Ad300 cells in presence to 10 uM test compound; assay type: functional
[16] = Ratio of cisplatin IC50 for cytotoxicity against HEK293T cells in absence of test compound to cisplatin IC50 for HEK293T cells expressing ABCB1 in presence of 10 uM test compound; assay type: functional, Homo sapiens
[17] = Ratio of cisplatin IC50 for cytotoxicity against human SW620 cells in absence of test compound to cisplatin IC50 for human SW620/Ad300 cells in presence to 4 uM test compound; assay type: functional
[18] = Ratio of doxorubicin IC50 for cytotoxicity against HEK293T cells in absence of test compound to doxorubicin IC50 for HEK293T cells expressing ABCB1 in presence of 4 uM test compound; assay type: functional, Homo sapiens
[19] = Ratio of cisplatin IC50 for cytotoxicity against HEK293T cells in absence of test compound to cisplatin IC50 for HEK293T cells expressing ABCB1 in presence of 4 uM test compound; assay type: functional, Homo sapiens
[20] = molecular target: T1, ATP-dependent translocase ABCB1; experiment: Inhibition of ABCB1 (unknown origin) expressed in HEK293T cells assessed as potentiation of doxorubicin-induced cytotoxicity after 72 hrs by MTT assay; assay type: cell-based
[21] = molecular target: T1, ATP-dependent translocase ABCB1; experiment: Inhibition of ABCB1 in human SW620/Ad300 cells assessed as potentiation of paclitaxel-induced cytotoxicity after 72 hrs by MTT assay; assay type: cell-based
[22] = molecular target: T1, ATP-dependent translocase ABCB1; experiment: Inhibition of ABCB1 in human SW620/Ad300 cells assessed as potentiation of doxorubicin-induced cytotoxicity after 72 hrs by MTT assay; assay type: cell-based
[23] = Ratio of paclitaxel IC50 for cytotoxicity against human SW620 cells in absence of test compound to paclitaxel IC50 for human SW620/Ad300 cells in presence to 20 uM test compound; assay type: functional
SW620/AD300 [24] = experiment: Cytotoxicity against human SW620/AD300 cells assessed as decrease in cell survival after 72 hrs by MTT assay; assay type: cell-based; conditions: SW620/AD300, 72 h
[25] = Ratio of doxorubicin IC50 for cytotoxicity against human SW620 cells in absence of test compound to doxorubicin IC50 for human SW620/Ad300 cells in presence to 20 uM test compound; assay type: functional
HEK-293T [26] = experiment: Potentiation of doxorubicin-induced cytotoxicity against HEK293T cells assessed as change in doxorubicin IC50 at 20 uM after 72 hrs by MTT assay relative to control; assay type: cell-based; conditions: human
SW-620 [27] = experiment: Potentiation of paclitaxel-induced cytotoxicity against human SW620 cells assessed as change in paclitaxel IC50 at 10 uM after 72 hrs by MTT assay relative to control; assay type: cell-based; conditions: sw-620, 72 h
SW620/AD300 [28] = experiment: Effect on expression of ABCB1 protein in human SW620/Ad300 cells at 20 uM after 24 to 96 hrs by Western blot method; assay type: functional, cell-based
SW-620 [29] = experiment: Potentiation of cisplatin-induced cytotoxicity against human SW620 cells assessed as change in cisplatin IC50 at 20 uM after 72 hrs by MTT assay relative to control; assay type: cell-based; conditions: sw-620, 72 h
[30] = Ratio of paclitaxel IC50 for cytotoxicity against human SW620 cells in absence of test compound to paclitaxel IC50 for human SW620/Ad300 cells in presence to 4 uM test compound; assay type: functional
MGC-803 = experiment: Cytotoxicity against human MGC803 cells assessed as decrease in cell survival at 10 to 20 uM after 72 hrs by MTT assay; assay type: cell-based; conditions: mgc-803, 72 h
SW-620 [31] = experiment: Potentiation of doxorubicin-induced cytotoxicity against human SW620 cells assessed as change in doxorubicin IC50 at 4 uM after 72 hrs by MTT assay relative to control; assay type: cell-based; conditions: sw-620, 72 h
HEK-293T [32] = experiment: Potentiation of cisplatin-induced cytotoxicity against HEK293T cells assessed as change in cisplatin IC50 at 4 uM after 72 hrs by MTT assay relative to control; assay type: cell-based; conditions: human
ECa-109 cell line = experiment: Cytotoxicity against human EC109 cells assessed as decrease in cell survival at 10 to 20 uM after 72 hrs by MTT assay; assay type: cell-based; conditions: eca-109, 72 h
HEK-293T [33] = experiment: Potentiation of doxorubicin-induced cytotoxicity against HEK293T cells assessed as change in doxorubicin IC50 at 4 uM after 72 hrs by MTT assay relative to control; assay type: cell-based; conditions: human
HEK-293T [34] = experiment: Potentiation of paclitaxel-induced cytotoxicity against HEK293T cells assessed as change in paclitaxel IC50 at 10 uM after 72 hrs by MTT assay relative to control; assay type: cell-based; conditions: human
[35] = Ratio of paclitaxel IC50 for cytotoxicity against HEK293T cells in absence of test compound to paclitaxel IC50 for HEK293T cells expressing ABCB1 in presence of 10 uM test compound; assay type: functional, Homo sapiens
[36] = Ratio of cisplatin IC50 for cytotoxicity against human SW620 cells in absence of test compound to cisplatin IC50 for human SW620/Ad300 cells in presence to 20 uM test compound; assay type: functional
SW-620 [37] = experiment: Potentiation of paclitaxel-induced cytotoxicity against human SW620 cells assessed as change in paclitaxel IC50 at 20 uM after 72 hrs by MTT assay relative to control; assay type: cell-based; conditions: sw-620, 72 h
SGC-7901 = experiment: Cytotoxicity against human SGC7901 cells assessed as decrease in cell survival at 10 to 20 uM after 72 hrs by MTT assay; assay type: cell-based; conditions: sgc-7901, 72 h
[38] = Ratio of doxorubicin IC50 for cytotoxicity against human SW620 cells in absence of test compound to doxorubicin IC50 for human SW620/Ad300 cells in presence to 4 uM test compound; assay type: functional
HEK-293T [39] = experiment: Potentiation of cisplatin-induced cytotoxicity against HEK293T cells assessed as change in cisplatin IC50 at 10 uM after 72 hrs by MTT assay relative to control; assay type: cell-based; conditions: human
HEK-293T [40] = experiment: Potentiation of paclitaxel-induced cytotoxicity against HEK293T cells assessed as change in paclitaxel IC50 at 4 uM after 72 hrs by MTT assay relative to control; assay type: cell-based; conditions: human
SW620/AD300 [41] = experiment: Effect on expression of ABCB1 protein in human SW620/Ad300 cells at 10 to 20 uM by Western blot method; assay type: functional, cell-based
SW-620 [42] = experiment: Potentiation of doxorubicin-induced cytotoxicity against human SW620 cells assessed as change in doxorubicin IC50 at 20 uM after 72 hrs by MTT assay relative to control; assay type: cell-based; conditions: sw-620, 72 h
A549 = experiment: Cytotoxicity against human A549 cells assessed as decrease in cell survival at 10 to 20 uM after 72 hrs by MTT assay; assay type: cell-based; conditions: a549, 72 h
SW-620 [43] = experiment: Cytotoxicity against human SW620 cells assessed as decrease in cell survival after 72 hrs by MTT assay; assay type: cell-based; conditions: SW-620, 72 h
[44] = Ratio of paclitaxel IC50 for cytotoxicity against human SW620 cells in absence of test compound to paclitaxel IC50 for human SW620/Ad300 cells in presence to 10 uM test compound; assay type: functional
HEK-293T [45] = experiment: Potentiation of cisplatin-induced cytotoxicity against HEK293T cells assessed as change in cisplatin IC50 at 20 uM after 72 hrs by MTT assay relative to control; assay type: cell-based; conditions: human

O=c1cc(-c2ccccc2)[nH]c2nc(SCc3nc4ccccc4[nH]3)nn12
fold change (FC) (HEK-293T [1]): 1.14
Ratio IC50 [2]: 19.37
fold change (FC) (HEK-293T [3]): 0.83
inhibition (INH) [4]: Active
fold change (FC) (SW-620 [5]): 1.07
Activity [6]: Active
fold change (FC) (SW-620 [7]): 1.17
Ratio IC50 [8]: 4.05
Ratio IC50 [9]: 15.69
Ratio IC50 [10]: 6.02
fold change (FC) (SW-620 [11]): 1.29
fold change (FC) (SW-620 [12]): 1.1
Ratio IC50 [13]: 0.91
Ratio IC50 [14]: 5.36
Activity (TE-1): Non-Toxic
Ratio IC50 [15]: 0.96
Ratio IC50 [16]: 1.05
Ratio IC50 [17]: 0.98
Ratio IC50 [18]: 4.1
Ratio IC50 [19]: 0.91
inhibition (INH) [20]: Dose-dependent effect
inhibition (INH) [21]: Dose-dependent effect
inhibition (INH) [22]: Dose-dependent effect
Ratio IC50 [23]: 125.8
IC50 (SW620/AD300 [24]): 106 µM
Ratio IC50 [25]: 3.77
fold change (FC) (HEK-293T [26]): 1.08
fold change (FC) (SW-620 [27]): 1.2
Activity (SW620/AD300 [28]): inactive
fold change (FC) (SW-620 [29]): 0.97
Ratio IC50 [30]: 156.74
Activity (MGC-803): Non-Toxic
fold change (FC) (SW-620 [31]): 1.18
fold change (FC) (HEK-293T [32]): 0.89
Activity (ECa-109 cell line): Non-Toxic
fold change (FC) (HEK-293T [33]): 1.07
fold change (FC) (HEK-293T [34]): 0.87
Ratio IC50 [35]: 27.8
Ratio IC50 [36]: 1.01
fold change (FC) (SW-620 [37]): 0.81
Activity (SGC-7901): Non-Toxic
Ratio IC50 [38]: 4.32
fold change (FC) (HEK-293T [39]): 1.04
fold change (FC) (HEK-293T [40]): 0.84
Activity (SW620/AD300 [41]): inactive
fold change (FC) (SW-620 [42]): 1.14
Activity (A549): Non-Toxic
IC50 (SW-620 [43]): 86 µM
Ratio IC50 [44]: 279.2
fold change (FC) (HEK-293T [45]): 0.98
